Data as given in patent US20230159527A1, “COMPOUNDS AS BCL-2 INHIBITORS” (Fochon Pharmaceuticals, Ltd., priority 2020, published 2023).

Tested on: Toledo cells
Test: Cell proliferation assay, Toledo cells (MTS, 72 h)
Type: cell-based
Conditions: Homo sapiens, Toledo cells, MTS, read-out: Toledo IC50
Method in brief: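 Toledo cells (30000/well, RPMI-1640 with 10% FBS) were preincubated for 4 h. They were then exposed to nine compound concentrations from 10000 to 1.5 nM for 72 h at 37 °C, 5% CO2. MTS was added for 2 h and absorbance read at 490 nm to give IC50.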

Row | Structure (SMILES) | IC50 [nM]
1 | CC(C)c1ccccc1[C@@H]1CCCN1C1CC2(CCN(c3ccc(C(=O)NS(=O)(=O)c4cc5c(c([N+](=O)[O-])c4)N[C@@H]([C@H]4CC[C@](C)(O)CC4)CO5)c(Oc4cc5cc[nH]c5nc4O[C@H]4CCOC4)c3)CC2)C1 (single isomer, unassigned) [Example D-74, N-(((S)-3-((1r,4S)-4-hydroxy-4-methylcyclohexyl)-5-nitro-3,4-dihydro-2H-benzo[b][1,4]oxazin-7-yl)sulfonyl)-4-(2-((R or S)-2-(2-isopropylphenyl)pyrrolidin-1-yl)-7-azaspiro[3.5]nonan-7-yl)-2-((6-(((S)-tetrahydrofuran-3-yl)oxy)-1H-pyrrolo[2,3-b]pyridin-5-yl)oxy)benzamide] | 1
2 | CC(C)c1ccccc1[C@@H]1CSCCN1C1CC2(CCN(c3ccc(C(=O)NS(=O)(=O)c4cc5c(c([N+](=O)[O-])c4)N[C@@H]([C@H]4CC[C@](C)(O)CC4)CO5)c(Oc4cnc5[nH]cc(F)c5c4)c3)CC2)C1 (single isomer, unassigned) [Example D-78, 2-((3-fluoro-1H-pyrrolo[2,3-b]pyridin-5-yl)oxy)-N-(((S)-3-((1r,4S)-4-hydroxy-4-methylcyclohexyl)-5-nitro-3,4-dihydro-2H-benzo[b] [1,4]oxazin-7-yl)sulfonyl)-4-(2-((R or S)-3-(2-isopropylphenyl)thiomorpholino)-7-azaspiro[3.5]nonan-7-yl)benzamide] | 1
3 | CC(C)c1ccccc1[C@@H]1CS(=O)(=O)CCN1C1CC2(CCN(c3ccc(C(=O)NS(=O)(=O)c4cc5c(c([N+](=O)[O-])c4)N[C@@H]([C@H]4CC[C@](C)(O)CC4)CO5)c(Oc4cnc5[nH]cc(F)c5c4)c3)CC2)C1 (single isomer, unassigned) [Example D-79, 2-((3-fluoro-1H-pyrrolo[2,3-b]pyridin-5-yl)oxy)-N-(((S)-3-((1r,4S)-4-hydroxy-4-methylcyclohexyl)-5-nitro-3,4-dihydro-2H-benzo[b] [1,4]oxazin-7-yl)sulfonyl)-4-(2-((R or S)-3-(2-isopropylphenyl)-1,1-dioxidothiomorpholino)-7-azaspiro [3.5]nonan-7-yl)benzamide] | 1
4 | CC(C)c1ccccc1[C@@H]1CN(S(=O)(=O)C2CC2)CCN1C1CC2(CCN(c3ccc(C(=O)NS(=O)(=O)c4cc5c(c([N+](=O)[O-])c4)N[C@@H]([C@H]4CC[C@](C)(O)CC4)CO5)c(Oc4cnc5[nH]cc(F)c5c4)c3)CC2)C1 (single isomer, unassigned) [Example D-81, 4-(2-((R or S)-4-(cyclopropylsulfonyl)-2-(2-isopropylphenyl)piperazin-1-yl)-7-azaspiro[3.5]nonan-7-yl)-2-((3-fluoro-1H-pyrrolo[2,3-b]pyridin-5-yl)oxy)-N-(((S)-3-((1r,4S)-4-hydroxy-4-methylcyclohexyl)-5-nitro-3,4-dihydro-2H-benzo[b][1,4]oxazin-7-yl)sulfonyl)benzamide] | 1
5 | CC(C)c1ccccc1[C@@H]1CCCN1C1CC2(CCN(c3ccc(C(=O)NS(=O)(=O)c4cc5c(c([N+](=O)[O-])c4)N[C@@H]([C@H]4CC[C@](C)(O)CC4)CO5)c(Oc4cc5c(F)c[nH]c5nc4Cl)c3)CC2)C1 (single isomer, unassigned) [Example D-84, 2-((6-chloro-3-fluoro-1H-pyrrolo [2,3-b]pyridin-5-yl)oxy)-N-(((S)-3-((1r,4S)-4-hydroxy-4-methylcyclohexyl)-5-nitro-3,4-dihydro-2H-benzo[b][1,4]oxazin-7-yl)sulfonyl)-4-(2-((R or S)-2-(2-isopropylphenyl)pyrrolidin-1-yl)-7-azaspiro[3.5]nonan-7-yl)benzamide] | 1
6 | COc1nc2[nH]ccc2cc1Oc1cc(N2CCC3(CC2)CN([C@H]2CCC[C@H]2c2ccccc2C(C)C)C3)ccc1C(=O)NS(=O)(=O)c1ccc(NC[C@H]2CC[C@](C)(O)CC2)c([N+](=O)[O-])c1 (single isomer, unassigned) [Example D-91, N-((4-((((1r,4r)-4-hydroxy-4-methylcyclohexyl)methyl)amino)-3-nitrophenyl)sulfonyl)-4-(2-((1S,2S or 1R,2R)-2-(2-isopropylphenyl)cyclopentyl)-2,7-diazaspiro[3.5]nonan-7-yl)-2-((6-methoxy-177-pyrrolo [2,3-b]pyridin-5-yl)oxy)benzamide] | 1
7 | CC(C)c1ccccc1[C@@H]1CCC[C@@H]1N1CC2(CCN(c3ccc(C(=O)NS(=O)(=O)c4cc5c(c([N+](=O)[O-])c4)N[C@@H]([C@H]4CC[C@](C)(O)CC4)CO5)c(Oc4cc5cc[nH]c5nc4OC4COC4)c3)CC2)C1 (single isomer, unassigned) [Example D-108, N-(((S)-3-((1r,4S)-4-hydroxy-4-methylcyclohexyl)-5-nitro-3,4-dihydro-2H-benzo[b][1,4]oxazin-7-yl)sulfonyl)-4-(2-((1S,2S or 1R,2R)-2-(2-isopropylphenyl)cyclopentyl)-2,7-diazaspiro[3.5]nonan-7-yl)-2-((6-(oxetan-3-yloxy)-1H-pyrrolo[2,3-b]pyridin-5-yl)oxy) benzamide] | 1
8 | CC(C)c1ccccc1[C@@H]1CCC[C@@H]1N1CC2(CCN(c3ccc(C(=O)NS(=O)(=O)c4ccc(NC[C@H]5CC[C@](C)(O)CC5)c([N+](=O)[O-])c4)c(Oc4cc5cc[nH]c5nc4OC4COC4)c3)CC2)C1 (single isomer, unassigned) [Example D-115, N-((4-((((1r,4r)-4-hydroxy-4-methylcyclohexyl)methyl)amino)-3-nitrophenyl)sulfonyl)-4-(2-((1S,2S or 1R,2R)-2-(2-isopropylphenyl)cyclopentyl)-2,7-diazaspiro[3.5]nonan-7-yl)-2-((6-(oxetan-3-yloxy)-1H-pyrrolo[2,3-b]pyridin-5-yl)oxy) benzamide] | 1
9 | CC(=O)N1CCN(C2CC3(CCN(c4ccc(C(=O)NS(=O)(=O)c5cc6c(c([N+](=O)[O-])c5)N[C@@H]([C@H]5CC[C@](C)(O)CC5)CO6)c(Oc5cnc6[nH]cc(F)c6c5)c4)CC3)C2)[C@H](c2ccccc2C(C)C)C1 (single isomer, unassigned) [Example D-140, 4-(2-((R or S)-4-acetyl-2-(2-isopropylphenyl)piperazin-1-yl)-7-azaspiro[3.5]nonan-7-yl)-2-((3-fluoro-1H-pyrrolo [2,3-b]pyridin-5-yl)oxy)-N-(((S)-3-((1r,4S)-4-hydroxy-4-methylcyclohexyl)-5-nitro-3,4-dihydro-2H-benzo[b][1,4]oxazin-7-yl)sulfonyl)benzamide] | 1
10 | COC(=O)N1CCN(C2CC3(CCN(c4ccc(C(=O)NS(=O)(=O)c5cc6c(c([N+](=O)[O-])c5)N[C@@H]([C@H]5CC[C@](C)(O)CC5)CO6)c(Oc5cnc6[nH]cc(F)c6c5)c4)CC3)C2)[C@H](c2ccccc2C(C)C)C1 (single isomer, unassigned) [Example D-144, methyl (R or S)-4-(7-(3-((3-fluoro-1H-pyrrolo [2,3-b]pyridin-5-yl)oxy)-4-((S)-3-((1r,4S)-4-hydroxy-4-methylcyclohexyl)-5-nitro-3,4-dihydro-2H-benzo[b][1,4]oxazin-7-yl)sulfonyl)carbamoyl)phenyl)-7-azaspiro[3.5] nonan-2-yl)-3-(2-isopropylphenyl) piperazine-1-carboxylate] | 1
11 | CC(C)c1ccccc1[C@@H]1CCCN1C1CC2(CCN(c3ccc(C(=O)NS(=O)(=O)c4cc5c(c([N+](=O)[O-])c4)N[C@@H]([C@H]4CC[C@](C)(O)CC4)CO5)c(Oc4cc5cc[nH]c5nc4N4CCC4)c3)CC2)C1 (single isomer, unassigned) [Example D-183, 2-((6-(azetidin-1-yl)-1H-pyrrolo [2,3-b]pyridin-5-yl)oxy)-N-(((S)-3-((1r,4S)-4-hydroxy-4-methylcyclohexyl)-5-nitro-3,4-dihydro-2H-benzo[b][1,4]oxazin-7-yl)sulfonyl)-4-(2-((R or S)-2-(2-isopropylphenyl)pyrrolidin-1-yl)-7-azaspiro[3.5]nonan-7-yl)benzamide] | 1
12 | CSc1nc2[nH]ccc2cc1Oc1cc(N2CCC3(CC2)CC(N2CCC[C@H]2c2ccccc2C(C)C)C3)ccc1C(=O)NS(=O)(=O)c1cc2c(c([N+](=O)[O-])c1)N[C@@H]([C@H]1CC[C@](C)(O)CC1)CO2 (single isomer, unassigned) [Example D-191, N-(((S)-3-((1r,4S)-4-hydroxy-4-methylcyclohexyl)-5-nitro-3,4-dihydro-2H-benzo[b][1,4]oxazin-7-yl)sulfonyl)-4-(2-((R or S)-2-(2-isopropylphenyl)pyrrolidin-1-yl)-7-azaspiro[3.5]nonan-7-yl)-2-((6-(methylthio)-1H-pyrrolo [2,3-b]pyridin-5-yl)oxy)benzamide] | 1
13 | CC(C)c1ccccc1[C@@H]1CCCN1C1CC2(CCN(c3ccc(C(=O)NS(=O)(=O)c4cc5c(c([N+](=O)[O-])c4)N[C@@H]([C@H]4CC[C@](C)(O)CC4)CO5)c(Oc4cc5cc[nH]c5nc4OC[C@H]4CCN4C(=O)OC(C)(C)C)c3)CC2)C1 (single isomer, unassigned) [Example D-213, tert-butyl (R)-2-(((5-(2-(((S)-3-((1r,4S)-4-hydroxy-4-methylcyclohexyl)-5-nitro-3,4-dihydro-2H-benzo[b][1,4]oxazin-7-yl)sulfonyl)carbamoyl)-5-(2-((R or S)-2-(2-isopropylphenyl)pyrrolidin-1-yl)-7-azaspiro[3.5]nonan-7-yl)phenoxy)-1H-pyrrolo[2,3-b]pyridin-6-yl)oxy)methyl)azetidine-1-carboxylate] | 1
14 | CC(C)c1ccccc1[C@@H]1CCCN1C1CC2(CCN(c3ccc(C(=O)NS(=O)(=O)c4cc5c(c([N+](=O)[O-])c4)N[C@@H]([C@H]4CC[C@](C)(O)CC4)CO5)c(Oc4cc5cc[nH]c5nc4OC[C@@H]4COCCN4C(=O)OC(C)(C)C)c3)CC2)C1 (single isomer, unassigned) [Example D-215, tert-butyl (S)-3-(((5-(2-((((S)-3-((1r,4S)-4-hydroxy-4-methylcyclohexyl)-5-nitro-3,4-dihydro-2H-benzo[b][1,4]oxazin-7-yl)sulfonyl)carbamoyl)-5-(2-((R or S)-2-(2-isopropylphenyl)pyrrolidin-1-yl)-7-azaspiro[3.5]nonan-7-yl)phenoxy)-1H-pyrrolo[2,3-b]pyridin-6-yl)oxy)methyl) morpholine-4-carboxylate] | 1
